Measured values from the supplement of paper PMC13380429.

How the values were obtained:
Conditions in all cases: 72 h
Caco-2 [1] = assay: cell viability relative to DMSO; higher = less toxic
Calu-3 [2] = assay: as above
HepG2 [3] = assay: as above
U2OS [4] = assay: as above
Vero E6 [5] = assay: as above
Caco-2 [6] = assay: relative viability EC50 (midpoint between 100% and the lowest measured viability); higher = less toxic
Calu-3 [7] = assay: as above
HepG2 [8] = assay: as above
U2OS [9] = assay: as above
Vero E6 [10] = assay: as above
Caco-2 [11] = assay: drug sensitivity score (DSS) for viability; higher = more toxic; extreme values may be limits of the assay
Calu-3 [12] = assay: as above
HepG2 [13] = assay: as above
U2OS [14] = assay: as above
Vero E6 [15] = assay: as above

Row | SMILES | cell viability (Caco-2 [1]; 1 nM) [%] | cell viability (Caco-2 [1]; 10 nM) [%] | cell viability (Caco-2 [1]; 100 nM) [%] | cell viability (Caco-2 [1]; 1000 nM) [%] | cell viability (Caco-2 [1]; 10000 nM) [%] | cell viability (Calu-3 [2]; 1 nM) [%] | cell viability (Calu-3 [2]; 10 nM) [%] | cell viability (Calu-3 [2]; 100 nM) [%] | cell viability (Calu-3 [2]; 1000 nM) [%] | cell viability (Calu-3 [2]; 10000 nM) [%] | cell viability (HepG2 [3]; 1 nM) [%] | cell viability (HepG2 [3]; 10 nM) [%] | cell viability (HepG2 [3]; 100 nM) [%] | cell viability (HepG2 [3]; 1000 nM) [%] | cell viability (HepG2 [3]; 10000 nM) [%] | cell viability (U2OS [4]; 1 nM) [%] | cell viability (U2OS [4]; 10 nM) [%] | cell viability (U2OS [4]; 100 nM) [%] | cell viability (U2OS [4]; 1000 nM) [%] | cell viability (U2OS [4]; 10000 nM) [%] | cell viability (Vero E6 [5]; 1 nM) [%] | cell viability (Vero E6 [5]; 10 nM) [%] | cell viability (Vero E6 [5]; 100 nM) [%] | cell viability (Vero E6 [5]; 1000 nM) [%] | cell viability (Vero E6 [5]; 10000 nM) [%] | relative viability EC50 (Caco-2 [6]) [µM] | relative viability EC50 (Calu-3 [7]) [µM] | relative viability EC50 (HepG2 [8]) [µM] | relative viability EC50 (U2OS [9]) [µM] | relative viability EC50 (Vero E6 [10]) [µM] | drug sensitivity score (Caco-2 [11]) | drug sensitivity score (Calu-3 [12]) | drug sensitivity score (HepG2 [13]) | drug sensitivity score (U2OS [14]) | drug sensitivity score (Vero E6 [15])
1 | NCCCC(O)(P(=O)(O)O)P(=O)(O)O [alendronate] | 97.4 | 102 | 96.9 | 99.8 | 94.3 | 85.5 | 103 | 92.3 | 107 | 98.5 | 101 | 91.7 | 107 | 95.4 | 88.8 | 96.6 | 103 | 94.8 | 104 | 97.7 | 102 | 98.5 | 106 | 103 | 106 | > 10 | > 10 | > 10 | > 10 | > 10 | 0 | 0 | 0.1 | 0 | 0
2 | Cc1[nH]cnc1CN1CCc2c(c3ccccc3n2C)C1=O [alosetron] | 101 | 98.7 | 95.6 | 104 | 109 | 102 | 93.5 | 102 | 91.7 | 106 | 111 | 93.7 | 83.9 | 89.1 | 94.4 | 98.2 | 95.6 | 104 | 96.9 | 99.5 | 99.3 | 94.5 | 93.1 | 96.5 | 97 | > 10 | > 10 | > 10 | > 10 | > 10 | 0 | 0 | 3.7 | 0 | 0
3 | CN(C)c1nc(N(C)C)nc(N(C)C)n1 [altretamine] | 97.8 | 100 | 99.8 | 106 | 89.9 | 92.7 | 95.6 | 111 | 99.3 | 102 | 97.3 | 96.7 | 94.9 | 96 | 93.9 | 100 | 104 | 96.5 | 103 | 97.2 | 104 | 98.3 | 95.5 | 93 | 101 | > 10 | > 10 | > 10 | > 10 | > 10 | 0 | 0 | 0 | 0 | 0
4 | CCN(CC)C(C)C(=O)c1ccccc1 (stereo not given) [amfepramone] | 117 | 95.9 | 103 | 102 | 128 | 109 | 85.5 | 93.6 | 93.7 | 103 | 106 | 102 | 100 | 96.6 | 101 | 100 | 95.3 | 98.1 | 95.2 | 98.6 | 92.3 | 102 | 106 | 106 | 86.8 | > 10 | > 10 | > 10 | > 10 | > 10 | 0 | 0 | 0 | 0 | 0
5 | C[C@@H]1[C@H](O)[C@@H](C)/C=C/C=C/C=C/C=C/C=C/C=C/C=C/[C@H](O[C@@H]2O[C@H](C)[C@@H](O)[C@H](N)[C@@H]2O)C[C@@H]2O[C@](O)(C[C@@H](O)C[C@@H](O)[C@H](O)CC[C@@H](O)C[C@@H](O)CC(=O)O[C@H]1C)C[C@H](O)[C@H]2C(=O)O [amphotericin-b] | 106 | 91.1 | 108 | 100 | 98.6 | 98.4 | 105 | 95.7 | 103 | 99.5 | 97.4 | 102 | 101 | 101 | 101 | 101 | 97 | 101 | 97.6 | 101 | 101 | 102 | 103 | 101 | 99.6 | > 10 | > 10 | > 10 | > 10 | > 10 | 0 | 0 | 0 | 0 | 0
6 | CCCNC(C)C(=O)Nc1c(C)csc1C(=O)OC (stereo not given) [articaine] | 98.5 | 96.7 | 95.2 | 104 | 105 | 94 | 94.6 | 100 | 93.5 | 106 | 97.9 | 105 | 110 | 104 | 112 | 96.5 | 95.8 | 99.7 | 92.8 | 105 | 93.4 | 93.1 | 96.1 | 97.3 | 108 | > 10 | > 10 | > 10 | > 10 | > 10 | 0 | 0 | 0 | 0 | 0
7 | C[C@H]1[C@H](C)CC[C@]2(C(=O)O)CC[C@]3(C)C(=CC[C@@H]4[C@@]5(C)C[C@@H](O)[C@H](O)[C@@](C)(CO)[C@@H]5CC[C@]43C)[C@H]12 [asiatic-acid] | 101 | 104 | 89.2 | 94.2 | 95.6 | 98.3 | 93.2 | 106 | 90.6 | 97.5 | 83.4 | 80.2 | 78.6 | 90.2 | 88.9 | 98.1 | 105 | 95.6 | 104 | 96.9 | 106 | 111 | 106 | 93 | 105 | > 10 | > 10 | > 10 | > 10 | > 10 | 0.4 | 0 | 0 | 0 | 0
